Results published in the supplement of paper PMC11451515.

Test system: P12-Ichikawa
Test: cell viability relative to DMSO control; higher = less cytotoxic
Conditions: 48 h
Outline: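 Viability is a per-plate percentage relative to DMSO wells, with cell-free wells as background. CellTiter-Glo One luminescence was read after 48 h at 37°C on 1536-well plates (5 μl) of NOMO1 or SEM (500 cells/well) or P12-Ichikawa (1000 cells/well) leukemia cells. The cells had been adapted for at least four passages in each medium and pin-dosed with library compounds in DMSO from 47 μM to 0.79 nM in 11 threefold steps.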

[1] = HPLM + 10% dialyzed FBS, 0.000781 µM
[2] = HPLM + 10% dialyzed FBS, 0.00234 µM
[3] = HPLM + 10% dialyzed FBS, 0.00702 µM
[4] = HPLM + 10% dialyzed FBS, 0.0211 µM
[5] = HPLM + 10% dialyzed FBS, 0.0632 µM
[6] = HPLM + 10% dialyzed FBS, 0.19 µM
[7] = HPLM + 10% dialyzed FBS, 0.569 µM
[8] = HPLM + 10% dialyzed FBS, 1.71 µM
[9] = HPLM + 10% dialyzed FBS, 5.12 µM
[10] = HPLM + 10% dialyzed FBS, 15.4 µM
[11] = HPLM + 10% dialyzed FBS, 46.1 µM
[12] = RPMI 5 mM glucose + 10% FBS, 0.000781 µM
[13] = RPMI 5 mM glucose + 10% FBS, 0.00234 µM
[14] = RPMI 5 mM glucose + 10% FBS, 0.00702 µM
[15] = RPMI 5 mM glucose + 10% FBS, 0.0211 µM
[16] = RPMI 5 mM glucose + 10% FBS, 0.0632 µM
[17] = RPMI 5 mM glucose + 10% FBS, 0.19 µM
[18] = RPMI 5 mM glucose + 10% FBS, 0.569 µM
[19] = RPMI 5 mM glucose + 10% FBS, 1.71 µM
[20] = RPMI 5 mM glucose + 10% FBS, 5.12 µM
[21] = RPMI 5 mM glucose + 10% FBS, 15.4 µM
[22] = RPMI 5 mM glucose + 10% FBS, 46.1 µM
[23] = RPMI 5 mM glucose + 10% dialyzed FBS, 0.000781 µM
[24] = RPMI 5 mM glucose + 10% dialyzed FBS, 0.00234 µM
[25] = RPMI 5 mM glucose + 10% dialyzed FBS, 0.00702 µM
[26] = RPMI 5 mM glucose + 10% dialyzed FBS, 0.0211 µM
[27] = RPMI 5 mM glucose + 10% dialyzed FBS, 0.0632 µM
[28] = RPMI 5 mM glucose + 10% dialyzed FBS, 0.19 µM
[29] = RPMI 5 mM glucose + 10% dialyzed FBS, 0.569 µM
[30] = RPMI 5 mM glucose + 10% dialyzed FBS, 1.71 µM
[31] = RPMI 5 mM glucose + 10% dialyzed FBS, 5.12 µM
[32] = RPMI 5 mM glucose + 10% dialyzed FBS, 15.4 µM
[33] = RPMI 5 mM glucose + 10% dialyzed FBS, 46.1 µM

| Structure (SMILES) | cell viability [1] | cell viability [2] | cell viability [3] | cell viability [4] | cell viability [5] | cell viability [6] | cell viability [7] | cell viability [8] | cell viability [9] | cell viability [10] | cell viability [11] | cell viability [12] | cell viability [13] | cell viability [14] | cell viability [15] | cell viability [16] | cell viability [17] | cell viability [18] | cell viability [19] | cell viability [20] | cell viability [21] | cell viability [22] | cell viability [23] | cell viability [24] | cell viability [25] | cell viability [26] | cell viability [27] | cell viability [28] | cell viability [29] | cell viability [30] | cell viability [31] | cell viability [32] | cell viability [33] |
| --- | --- | --- | --- | --- | --- | --- | --- | --- | --- | --- | --- | --- | --- | --- | --- | --- | --- | --- | --- | --- | --- | --- | --- | --- | --- | --- | --- | --- | --- | --- | --- | --- | --- |
| COc1cc2ncnc(Nc3cccc(Br)c3)c2cc1OC | 88.8% | 101% | 103% | 100% | 97.6% | 105% | 110% | 98.4% | 102% | 111% | 106% | 87.9% | 97.6% | 105% | 103% | 108% | 107% | 117% | 99.8% | 114% | 112% | 106% | 95.9% | 91.5% | 106% | 104% | 114% | 112% | 113% | 109% | 109% | 112% | 105% |
| CCN(CC)CCN1C(=O)\C(=N/C2=CC=CC=C12)CC3=CC=C(OC)C=C3 | 107% | 111% | 110% | 114% | 119% | 114% | 120% | 113% | 109% | 114% | 113% | 93.6% | 113% | 109% | 119% | 127% | 121% | 130% | 119% | 111% | 114% | 119% | 107% | 112% | 118% | 107% | 112% | 109% | 109% | 111% | 104% | 96.5% | 96.6% |
| OCCCNc1cc(-c2ccnc(Nc3cccc(Cl)c3)n2)ccn1 | 98% | 99.8% | 107% | 109% | 110% | 113% | 65.4% | 13.6% | 10.3% | 8.26% | 7.93% | 102% | 105% | 105% | 104% | 118% | 87.9% | 55.6% | 12.1% | 7.63% | 8.26% | 5.79% | 94.9% | 106% | 106% | 119% | 113% | 100% | 43.7% | 11.9% | 10.5% | 11% | 9.06% |
| O=C(NNC(=O)c1ccc(CN[S+](=O)([O-])c2ccc(F)c(Cl)c2)cc1)c1ccccc1 | 97.4% | 106% | 104% | 99% | 109% | 107% | 107% | 109% | 113% | 105% | 113% | 99.8% | 101% | 98.7% | 96.5% | 112% | 100% | 106% | 98.6% | 91.6% | 114% | 105% | 87% | 98.3% | 98.3% | 102% | 103% | 98.1% | 102% | 103% | 103% | 107% | 101% |
| CC1(C)CC(O)CC(C)(C)N1[O] | 111% | 112% | 119% | 118% | 128% | 121% | 132% | 124% | 120% | 117% | 119% | 110% | 111% | 109% | 110% | 126% | 134% | 125% | 114% | 119% | 119% | 116% | 107% | 122% | 113% | 120% | 125% | 129% | 125% | 134% | 127% | 127% | 126% |
| C[N+](C)([O-])CCNc1ccc(NCC[N+](C)(C)[O-])c2c1C(=O)c1c(O)ccc(O)c1C2=O | 99.5% | 98.6% | 97.6% | 103% | 100% | 90.1% | 83.2% | 63.4% | 21.8% | 28.9% | 15.2% | 101% | 101% | 92.3% | 102% | 82.7% | 72.3% | 62.9% | 42.8% | 7.99% | 13.9% | 7.05% | 84.3% | 80.9% | 95.8% | 96% | 83.7% | 79.3% | 76.2% | 44.9% | 14.8% | 23.6% | 10.6% |
| COc1cc(OC)c(NC(=O)Nc2cc(C)on2)cc1Cl | 94.9% | 98.8% | 110% | 99.6% | 101% | 106% | 102% | 106% | 107% | 110% | 106% | 90.3% | 95.9% | 96.8% | 98.2% | 108% | 104% | 95.5% | 106% | 107% | 102% | 101% | 98.1% | 90.7% | 97% | 97.8% | 96.5% | 96.5% | 106% | 102% | 96.2% | 91.7% | 92% |
